We go through 1 molecule from patent publication US5618560A, “Controlled release erodible composition” (BM Research A/S, priority 1988, dated 1997).

This data set can be described thus: clinical. The note with it: human, in vivo, iv, 5 mg/kg, Serum half-life. More on the design: species or system patients (human).

Experimental: The in vivo release of theophylline from this composition was tested in six patients, 3 males and 3 females, aged 18-42 years (mean age 30 years), weighing from 63 to 85 kg (mean weight 66 kg), all of whom were diagnosed as having bronchial asthma.
The first dose was given to the patients before breakfast (i.e. in the fasting state) as two units of the composition (340 mg theophylline) together with 100 ml of liquid. […] Following the oral dose, venous blood samples were drawn at 0, 1, 2, 3, 4, 6, 8, 10, 12, 14, 16 and 24 hours. Serum samples were drawn at 0, 15 min., 30 min., 60 min., 90 min., and 2, 3, 5, 7, 9 and 11 hours after the i.v. dose. The serum portion of the blood specimen was immediately frozen at -20° C. and kept frozen until analyzed 2 weeks later. The amount of theophylline in the serum was assayed by HPLC with an accuracy of ±5%.

As a reminder, the half-life is how long it takes for the measured level to halve. High values mean slow decline, low ones rapid decline. `Cn1c(=O)c2[nH]cnc2n(C)c1=O` [theophylline] had a half-life of 6 h.
